Measured values reported in ChEMBL document CHEMBL1201862, “PubChem BioAssay data set” (2004).
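Growth conditions: 96-well plates. Treatment: test compound, 48 hours, 5 concentrations. Analysis: linear interpolation between bracketing concentrations; unreached endpoints set to highest concentration. Abbreviation: GI50, concentration required for 50% inhibition of growth.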 Active and inactive are the calls of the source. Rule as the data show it: active = GI50 up to about 1.1 µM and inactive = higher.

Assays:
Experiment in all cases: NCI anticancer screen, dose series, 48 h
[1] = tested on: HCT-116
[2] = tested on: ACHN
[3] = tested on: SN12C
[4] = tested on: HCT-15
[5] = tested on: EKVX
[6] = tested on: HOP-92
[7] = tested on: DMS-114
[8] = tested on: SNB-75
[9] = tested on: UO-31
[10] = tested on: UACC-62
[11] = tested on: SK-MEL-2
[12] = tested on: DMS-273
[13] = tested on: COLO 205
[14] = tested on: SF-539
[15] = tested on: CAKI-1
[16] = tested on: SW-620
[17] = tested on: RXF 393
[18] = tested on: IGROV-1
[19] = tested on: KM12
[20] = tested on: DLD-1
[21] = tested on: HL-60
[22] = tested on: HT-29
[23] = tested on: LOX IMVI
[24] = tested on: SNB-19
[25] = tested on: A549
[26] = tested on: 786-0
[27] = tested on: SK-MEL-5
[28] = tested on: SK-OV-3
[29] = tested on: NCI-H23
[30] = tested on: MOLT-4
[31] = tested on: HOP-18
[32] = tested on: HCC 2998
[33] = tested on: NCI-H522
[34] = tested on: RXF 631
[35] = tested on: K562
[36] = tested on: OVCAR-8
[37] = tested on: SF-268
[38] = tested on: M19-MEL
[39] = tested on: UACC-257
[40] = tested on: KM-20L2
[41] = tested on: A498
[42] = tested on: SF-295
[43] = tested on: Malme-3M
[44] = tested on: OVCAR-3
[45] = tested on: OVCAR-4
[46] = tested on: U-251
[47] = tested on: OVCAR-5
[48] = tested on: SNB-78
[49] = tested on: LXFL 529
[50] = tested on: HOP-62
[51] = tested on: NCI-H226
[52] = tested on: CCRF-CEM
[53] = tested on: M14
[54] = tested on: NCI-H460
[55] = tested on: SK-MEL-28
[56] = tested on: TK-10

For `Cc1ccccc1-n1c(C)nc(-c2ccccc2)cc1=O`, the GI50 [1] was > 100 µM (inactive), the GI50 [2] was > 100 µM (inactive) and the GI50 [3] was > 100 µM (inactive). For the same molecule, the GI50 [4] was > 100 µM, the GI50 [5] was > 100 µM (inactive) and the GI50 [6] was > 100 µM (inactive). For the same molecule, the GI50 [7] was > 100 µM (inactive), the GI50 [8] was 37.7 µM (inactive) and the GI50 [9] was > 100 µM (inactive). The GI50 [10] was > 100 µM (inactive), the GI50 [11] was > 100 µM (inactive) and the GI50 [12] was > 100 µM (inactive). The GI50 [13] was > 100 µM (inactive), the GI50 [14] was > 100 µM (inactive) and the GI50 [15] was > 100 µM (inactive). The GI50 [16] was > 100 µM (inactive), the GI50 [17] was > 100 µM (inactive) and the GI50 [18] was > 100 µM (inactive). The GI50 [19] was > 100 µM (inactive), the GI50 [20] was > 100 µM (inactive) and the GI50 [21] was > 100 µM (inactive). For the same molecule, the GI50 [22] was > 100 µM (inactive), the GI50 [23] was > 100 µM (inactive) and the GI50 [24] was > 100 µM (inactive). The GI50 [25] was > 100 µM (inactive), the GI50 [26] was > 100 µM (inactive) and the GI50 [27] was > 100 µM (inactive). The GI50 [28] was > 100 µM (inactive), the GI50 [29] was > 100 µM (inactive) and the GI50 [30] was > 100 µM (inactive). The GI50 [31] was > 100 µM (inactive), the GI50 [32] was > 100 µM (inactive) and the GI50 [33] was > 100 µM (inactive). For the same molecule, the GI50 [34] was > 100 µM (inactive), the GI50 [35] was > 100 µM (inactive) and the GI50 [36] was > 100 µM (inactive). For the same molecule, the GI50 [37] was > 100 µM (inactive), the GI50 [38] was > 100 µM (inactive) and the GI50 [39] was > 100 µM (inactive). For the same molecule, the GI50 [40] was > 100 µM (inactive), the GI50 [41] was > 100 µM (inactive) and the GI50 [42] was > 100 µM (inactive). For the same molecule, the GI50 [43] was > 100 µM (inactive), the GI50 [44] was > 100 µM (inactive) and the GI50 [45] was > 100 µM (inactive). The GI50 [46] was > 100 µM (inactive), the GI50 [47] was > 100 µM (inactive) and the GI50 [48] was > 100 µM (inactive). For the same molecule, the GI50 [49] was > 100 µM (inactive), the GI50 [50] was > 100 µM (inactive) and the GI50 [51] was > 100 µM (inactive). The GI50 [52] was > 100 µM (inactive), the GI50 [53] was > 100 µM (inactive) and the GI50 [54] was > 100 µM (inactive). The GI50 [55] was > 100 µM (inactive) and the GI50 [56] was > 100 µM (inactive).
